According to patent publication US20230085307A1, “PYRIDAZINONE COMPOUND AND HERBICIDE” (NISSAN CHEMICAL CORPORATION, priority 2019, published 2023):

Assays:
wild oat [1] = assay: Test Example 4: herbicidal effect by soil treatment (Table 19, symbol I); type: in vivo, wild oat (Avena fatua); conditions: amount of applied herbicide 320 g/ha
Outline: (§1)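 Seeds were sown in sterilized diluvial soil and covered with about 1.5 cm of soil. An emulsion formulation diluted with water to a predetermined herbicide amount was sprayed evenly onto the soil surface. Plants grew in a greenhouse at 25° C. to 30° C., and the effect was scored three weeks after application using criteria from an earlier test.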

rice flat sedge = assay: Test Example 3: herbicidal effect by foliage application, Wagner pot (Table 18, symbol E); type: in vivo, rice flat sedge (Cyperus iria); conditions: amount of applied herbicide 320 g/ha
Outline: (§2)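 Plants were sown in alluvial soil held under 0.1–0.5 cm standing water and grown 14 days in a greenhouse at 25–30 °C. An emulsifiable formulation, water-diluted to the set dose, was then sprayed onto the foliage, and effects were scored three weeks later using previously defined criteria.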

southern crabgrass [2] = assay: Test Example 4: herbicidal effect by soil treatment (Table 19, symbol F); type: in vivo, southern crabgrass (Digitaria ciliaris); conditions: amount of applied herbicide 320 g/ha
Outline: as §1

lambsquarters [3] = assay: Test Example 4: herbicidal effect by soil treatment (Table 19, symbol O); type: in vivo, lambsquarters (Chenopodium album); conditions: amount of applied herbicide 320 g/ha
Outline: as §1

blackgrass = assay: Test Example 5: herbicidal effect by foliage application, plastic box (Table 20, symbol J); type: in vivo, blackgrass (Alopecurus myosuroides); conditions: foliage application, 320 g/ha, evaluated three weeks after application
Outline: (§3)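 Plants sown in sterilized diluvial soil and grown 14 days in a greenhouse at 25° C to 30° C, then sprayed on the foliage with the compound's emulsion diluted in water to a predetermined herbicide amount. Injury to weeds and crops scored three weeks after application on a visual rating scale.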

barnyard grass [4] = assay: Test Example 4: herbicidal effect by soil treatment (Table 19, symbol H); type: in vivo, barnyard grass (Echinochloa crus-galli); conditions: amount of applied herbicide 320 g/ha
Outline: as §1

wild oat [5] = assay: Test Example 5: herbicidal effect by foliage application, plastic box (Table 20, symbol I); type: in vivo, wild oat (Avena fatua); conditions: foliage application, 320 g/ha, evaluated three weeks after application
Outline: as §3

Italian ryegrass [6] = assay: Test Example 4: herbicidal effect by soil treatment (Table 19, symbol K); type: in vivo, Italian ryegrass (Lolium multiflorum); conditions: amount of applied herbicide 320 g/ha
Outline: as §1

redroot pigweed [7] = assay: Test Example 4: herbicidal effect by soil treatment (Table 19, symbol N); type: in vivo, redroot pigweed (Amaranthus retroflexus); conditions: amount of applied herbicide 320 g/ha
Outline: as §1

southern crabgrass [8] = assay: Test Example 5: herbicidal effect by foliage application, plastic box (Table 20, symbol F); type: in vivo, southern crabgrass (Digitaria ciliaris); conditions: foliage application, 320 g/ha, evaluated three weeks after application
Outline: as §3

chickweed = assay: Test Example 4: herbicidal effect by soil treatment (Table 19, symbol P); type: in vivo, common chickweed (Stellaria media); conditions: amount of applied herbicide 320 g/ha
Outline: as §1

persian speedwell = assay: Test Example 5: herbicidal effect by foliage application, plastic box (Table 20, symbol R); type: in vivo, Persian speedwell (Veronica persica); conditions: foliage application, 320 g/ha, evaluated three weeks after application
Outline: as §3

Japanese bulrush = assay: Test Example 2: herbicidal activity, application during weed generation under submerged conditions (Table 17, symbol B); type: in vivo, Japanese bulrush (Schoenoplectus juncoides); conditions: AAH 320 g/ha; application during weed generation, submerged conditions
Outline: (§4)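 Effect on each weed is rated three weeks post-treatment, using the same scoring criteria as the preceding test. Plants grow from mixed-sown seed in flooded alluvial soil (4 cm water) at 25° C. to 30° C., and are treated at one to two leaves with diluted emulsion dropped onto the water.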

Italian ryegrass [9] = assay: Test Example 5: herbicidal effect by foliage application, plastic box (Table 20, symbol K); type: in vivo, Italian ryegrass (Lolium multiflorum); conditions: foliage application, 320 g/ha, evaluated three weeks after application
Outline: as §3

barnyard grass [10] = assay: Test Example 3: herbicidal effect by foliage application, Wagner pot (Table 18, symbol H); type: in vivo, barnyard grass (Echinochloa crus-galli); conditions: amount of applied herbicide 320 g/ha
Outline: as §2

barnyard grass [11] = assay: Test Example 5: herbicidal effect by foliage application, plastic box (Table 20, symbol H); type: in vivo, barnyard grass (Echinochloa crus-galli); conditions: foliage application, 320 g/ha, evaluated three weeks after application
Outline: as §3

windgrass = assay: Test Example 5: herbicidal effect by foliage application, plastic box (Table 20, symbol L); type: in vivo, windgrass (Apera spica-venti); conditions: foliage application, 320 g/ha, evaluated three weeks after application
Outline: as §3

velvetleaf = assay: Test Example 4: herbicidal effect by soil treatment (Table 19, symbol M); type: in vivo, velvetleaf (Abutilon theophrasti); conditions: amount of applied herbicide 320 g/ha
Outline: as §1

redroot pigweed [12] = assay: Test Example 5: herbicidal effect by foliage application, plastic box (Table 20, symbol N); type: in vivo, redroot pigweed (Amaranthus retroflexus); conditions: foliage application, 320 g/ha, evaluated three weeks after application
Outline: as §3

late watergrass = assay: Test Example 2: herbicidal activity, application during weed generation under submerged conditions (Table 17, symbol A); type: in vivo, late watergrass (Echinochloa oryzicola); conditions: AAH 320 g/ha; application during weed generation, submerged conditions
Outline: as §4

green foxtail = assay: Test Example 4: herbicidal effect by soil treatment (Table 19, symbol G); type: in vivo, green foxtail (Setaria viridis); conditions: amount of applied herbicide 320 g/ha
Outline: as §1

lambsquarters [13] = assay: Test Example 5: herbicidal effect by foliage application, plastic box (Table 20, symbol O); type: in vivo, lambsquarters (Chenopodium album); conditions: foliage application, 320 g/ha, evaluated three weeks after application
Outline: as §3

Row | SMILES | I: wild oat, herbicidal effect rating (wild oat [1]) | herbicidal effect on E: rice flat sedge (rice flat sedge) | F: southern crabgrass, herbicidal effect rating (southern crabgrass [2]) | O: lambsquarters, herbicidal effect rating (lambsquarters [3]) | H: barnyard grass, herbicidal effect rating (barnyard grass [4]) | K: Italian ryegrass, herbicidal effect rating (Italian ryegrass [6]) | N: redroot pigweed, herbicidal effect rating (redroot pigweed [7]) | P: chickweed, herbicidal effect rating (chickweed) | herbicidal effect rating, B: Japanese bulrush (Japanese bulrush) | herbicidal effect on H: barnyard grass (barnyard grass [10]) | M: velvetleaf, herbicidal effect rating (velvetleaf) | herbicidal effect rating, A: late watergrass (late watergrass) | G: green foxtail, herbicidal effect rating (green foxtail) | herbicidal effect on J: blackgrass (criteria 0-5) (blackgrass) | herbicidal effect on I: wild oat (criteria 0-5) (wild oat [5]) | herbicidal effect on F: southern crabgrass (criteria 0-5) (southern crabgrass [8]) | herbicidal effect on R: persian speedwell (criteria 0-5) (persian speedwell) | herbicidal effect on K: Italian ryegrass (criteria 0-5) (Italian ryegrass [9]) | herbicidal effect on H: barnyard grass (criteria 0-5) (barnyard grass [11]) | herbicidal effect on L: windgrass (criteria 0-5) (windgrass) | also measured
1 | CCCC(=O)Oc1c(C)nn(C)c(=O)c1-c1c(-c2ccccc2OC)sc2ccc(C)cc12 [2-139] | 0 (Herbicidal rate of 5% or less (almost no effect)) | 4 (Herbicidal rate of 70% or more and less than 90%) | 0 (Herbicidal rate of 5% or less (almost no effect)) | 0 (Herbicidal rate of 5% or less (almost no effect)) | 0 (Herbicidal rate of 5% or less (almost no effect)) | 1 (Herbicidal rate of 5% or more and less than 20%) | 0 (Herbicidal rate of 5% or less (almost no effect)) | 5 (Herbicidal rate of 90% or more (almost completely withered)) | 3 (Herbicidal rate of 40% or more and less than 70%) | 4 (Herbicidal rate of 70% or more and less than 90%) | 0 (Herbicidal rate of 5% or less (almost no effect)) | 3 (Herbicidal rate of 40% or more and less than 70%) | 0 (Herbicidal rate of 5% or less (almost no effect)) | – | – | – | – | – | – | – | herbicidal effect on J: blackgrass (blackgrass): 2 (Herbicidal rate of 20% or more and less than 40%); herbicidal effect on I: wild oat (wild oat [5]): 1 (Herbicidal rate of 5% or more and less than 20%); herbicidal effect on F: southern crabgrass (southern crabgrass [8]): 3 (Herbicidal rate of 40% or more and less than 70%); herbicidal effect on R: persian speedwell (persian speedwell): 4 (Herbicidal rate of 70% or more and less than 90%); herbicidal effect on K: Italian ryegrass (Italian ryegrass [9]): 1 (Herbicidal rate of 5% or more and less than 20%); herbicidal effect on H: barnyard grass (barnyard grass [11]): 4 (Herbicidal rate of 70% or more and less than 90%); herbicidal effect on L: windgrass (windgrass): 0 (Herbicidal rate of 5% or less (almost no effect)); herbicidal effect on N: redroot pigweed (redroot pigweed [12]): 4 (Herbicidal rate of 70% or more and less than 90%); herbicidal effect on O: lambsquarters (lambsquarters [13]): 3 (Herbicidal rate of 40% or more and less than 70%)
2 | C=Cc1ccc2sc(-c3ccccc3OC)c(-c3c(O)c(C)nn(C)c3=O)c2c1 [2-185] | 0 (Herbicidal rate of 5% or less (almost no effect)) | 2 (Herbicidal rate of 20% or more and less than 40%) | 0 (Herbicidal rate of 5% or less (almost no effect)) | 1 (Herbicidal rate of 5% or more and less than 20%) | 0 (Herbicidal rate of 5% or less (almost no effect)) | 0 (Herbicidal rate of 5% or less (almost no effect)) | 5 (Herbicidal rate of 90% or more (almost completely withered)) | 0 (Herbicidal rate of 5% or less (almost no effect)) | 0 (Herbicidal rate of 5% or less (almost no effect)) | 3 (Herbicidal rate of 40% or more and less than 70%) | 0 (Herbicidal rate of 5% or less (almost no effect)) | 3 (Herbicidal rate of 40% or more and less than 70%) | 0 (Herbicidal rate of 5% or less (almost no effect)) | 1 (Herbicidal rate of 5% or more and less than 20%) | 0 (Herbicidal rate of 5% or less (almost no effect)) | 2 (Herbicidal rate of 20% or more and less than 40%) | 4 (Herbicidal rate of 70% or more and less than 90%) | 0 (Herbicidal rate of 5% or less (almost no effect)) | 0 (Herbicidal rate of 5% or less (almost no effect)) | 1 (Herbicidal rate of 5% or more and less than 20%) | herbicidal effect on N: redroot pigweed (criteria 0-5) (redroot pigweed [12]): 5 (Herbicidal rate of 90% or more (almost completely withered)); herbicidal effect on O: lambsquarters (criteria 0-5) (lambsquarters [13]): 4 (Herbicidal rate of 70% or more and less than 90%)
3 | Cc1nn(C)c(=O)c(-c2c(-c3ccccc3)sc3ccc(F)cc23)c1O [2-197] | 1 (Herbicidal rate of 5% or more and less than 20%) | 5 (Herbicidal rate of 90% or more (almost completely withered)) | 4 (Herbicidal rate of 70% or more and less than 90%) | 5 (Herbicidal rate of 90% or more (almost completely withered)) | 5 (Herbicidal rate of 90% or more (almost completely withered)) | 4 (Herbicidal rate of 70% or more and less than 90%) | 5 (Herbicidal rate of 90% or more (almost completely withered)) | 3 (Herbicidal rate of 40% or more and less than 70%) | 3 (Herbicidal rate of 40% or more and less than 70%) | 5 (Herbicidal rate of 90% or more (almost completely withered)) | 4 (Herbicidal rate of 70% or more and less than 90%) | 3 (Herbicidal rate of 40% or more and less than 70%) | 4 (Herbicidal rate of 70% or more and less than 90%) | 4 (Herbicidal rate of 70% or more and less than 90%) | 4 (Herbicidal rate of 70% or more and less than 90%) | 5 (Herbicidal rate of 90% or more (almost completely withered)) | 5 (Herbicidal rate of 90% or more (almost completely withered)) | 4 (Herbicidal rate of 70% or more and less than 90%) | 5 (Herbicidal rate of 90% or more (almost completely withered)) | 4 (Herbicidal rate of 70% or more and less than 90%) | herbicidal effect on N: redroot pigweed (criteria 0-5) (redroot pigweed [12]): 5 (Herbicidal rate of 90% or more (almost completely withered)); herbicidal effect on O: lambsquarters (criteria 0-5) (lambsquarters [13]): 5 (Herbicidal rate of 90% or more (almost completely withered))
